Measurements taken from patent US20260224577A1, “METHODS OF TREATING HEART FAILURE WITH VIBEGRON” (SUMITOMO PHARMA CO., LTD., priority 2021, published 2026).

Legend:
β3-adrenergic receptor = target: T1, β3-adrenergic receptor (Homo sapiens, UniProt P13945); experiment: Functional cellular cAMP (HTRF) assay, HEK293 cells expressing β3-ARs; format: cell-based
T1 construct: expressed in transfected cells; host or cells: HEK293
Protocol: (§1) The potency and maximal effect of vibegron and mirabegron for β3-adrenergic receptors and the selectivity for each […] receptor were determined. Functional cellular assays for vibegron and mirabegron activity were performed using Chinese hamster ovary (CHO) cells expressing β1- or β2-ARs and human embryonic kidney (HEK) 293 cells expressing β3-ARs. Cells were incubated with vibegron, mirabegron, or the appropriate control (isoproterenol for β1 and β3, procaterol for β2). Responses were quantified using homogeneous time-resolved fluorescence of cyclic adenosine monophosphate. Half-maximal effective concentration (EC50) and maximum response (Emax) values were determined by nonlinear least-squares regression analysis.

β2-adrenergic receptor = target: T2, β2-adrenergic receptor (Homo sapiens, UniProt P07550); experiment: Functional cellular cAMP (HTRF) assay, CHO cells expressing β2-ARs; format: cell-based; details: relative to procaterol
T2 construct: expressed in transfected cells; host or cells: CHO
T2 sequence (P07550 whole entry): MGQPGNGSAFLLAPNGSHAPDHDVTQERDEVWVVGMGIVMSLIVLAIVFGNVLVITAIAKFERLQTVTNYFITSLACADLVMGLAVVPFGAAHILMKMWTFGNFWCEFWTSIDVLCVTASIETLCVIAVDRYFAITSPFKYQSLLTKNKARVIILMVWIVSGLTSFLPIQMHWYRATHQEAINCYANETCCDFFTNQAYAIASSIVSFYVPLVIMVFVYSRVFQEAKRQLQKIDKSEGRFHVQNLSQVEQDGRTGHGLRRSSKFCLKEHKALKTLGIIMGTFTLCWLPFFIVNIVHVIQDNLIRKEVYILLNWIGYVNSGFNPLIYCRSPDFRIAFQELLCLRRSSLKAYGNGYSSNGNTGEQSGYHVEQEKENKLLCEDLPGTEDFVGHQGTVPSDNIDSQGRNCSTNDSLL
Protocol: as §1

β1-adrenergic receptor = target: T3, β1-adrenergic receptor (Homo sapiens, UniProt P08588); experiment: Functional cellular cAMP (HTRF) assay, CHO cells expressing β1-ARs; format: cell-based; details: relative to isoproterenol
T3 construct: expressed in transfected cells; host or cells: CHO
T3 sequence (P08588 whole entry): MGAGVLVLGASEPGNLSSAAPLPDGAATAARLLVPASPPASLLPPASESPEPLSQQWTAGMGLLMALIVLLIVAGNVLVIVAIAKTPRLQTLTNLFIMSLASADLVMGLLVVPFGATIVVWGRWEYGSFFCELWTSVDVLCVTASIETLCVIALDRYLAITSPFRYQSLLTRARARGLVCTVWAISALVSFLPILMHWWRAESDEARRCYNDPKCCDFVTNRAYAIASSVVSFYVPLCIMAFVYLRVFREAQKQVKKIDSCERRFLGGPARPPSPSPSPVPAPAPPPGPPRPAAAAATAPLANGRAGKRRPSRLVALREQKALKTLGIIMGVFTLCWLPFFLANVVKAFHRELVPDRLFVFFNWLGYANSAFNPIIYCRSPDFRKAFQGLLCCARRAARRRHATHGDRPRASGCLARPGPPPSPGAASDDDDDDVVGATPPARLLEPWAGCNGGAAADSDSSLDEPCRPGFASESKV
Protocol: as §1

[1] = test system: subjects with NYHA class II-III HF and LVEF <40%; details: BEAT-HF trial; cited from earlier work
[2] = test system: elderly patients with heart failure, including a subgroup with HFpEF; details: cited from earlier work

T1 sequence (P13945 whole entry): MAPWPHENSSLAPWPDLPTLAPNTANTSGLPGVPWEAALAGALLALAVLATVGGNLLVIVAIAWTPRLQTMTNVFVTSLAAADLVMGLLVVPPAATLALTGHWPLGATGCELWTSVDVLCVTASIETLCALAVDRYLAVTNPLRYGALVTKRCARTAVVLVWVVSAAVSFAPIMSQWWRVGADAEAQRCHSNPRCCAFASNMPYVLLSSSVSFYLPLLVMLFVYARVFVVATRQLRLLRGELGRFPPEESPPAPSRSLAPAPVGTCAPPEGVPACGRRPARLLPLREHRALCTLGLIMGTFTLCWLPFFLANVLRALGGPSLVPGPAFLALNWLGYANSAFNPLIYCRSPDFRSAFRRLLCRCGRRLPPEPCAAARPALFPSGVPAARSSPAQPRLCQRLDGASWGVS

| SMILES | β3-adrenergic activity relative to isoproterenol (% Activity) (β3-adrenergic receptor; 10 μM, HEK293 cells) [%] | Emax (β3-adrenergic receptor; HEK293, estimated by nonlinear least-squares regression, read-out: Emax (maximum response) at the β3-AR) [%] | EC50 (β3-adrenergic receptor; HEK293 cells expressing β3-ARs, cAMP, read-out: Mean (SEM) EC50 at the β3-AR) [nM] | β2-adrenergic activity (% Activity) (β2-adrenergic receptor) [%] | β1-adrenergic activity (% Activity) (β1-adrenergic receptor) [%] | Primary endpoint (change in LVEF) [1] | Treatment of heart failure [2] |
| --- | --- | --- | --- | --- | --- | --- | --- |
| Nc1nc(CC(=O)Nc2ccc(CCNC[C@H](O)c3ccccc3)cc2)cs1 [Mirabegron] | 88 | 80.4 | 10 | 15 | 3 | failed to meet the primary endpoint |  |
| OC(CNCC(O)C1CCc2cc(F)ccc2O1)C1CCc2cc(F)ccc2O1 (stereo not shown) [nebivolol] |  |  |  |  |  |  | some success in treating heart failure in elderly patients |
